Consider nine compounds from ChEMBL document CHEMBL6121003, “Design, synthesis, and pharmacological evaluation of triazine-based PI3K/mTOR inhibitors for the potential treatment of non-small cell lung cancer” (Eur J Med Chem, 2025).

The test system of one data set is PC-9. Kind of data set: Antiproliferative activity against human PC-9 cells measured after 48 hrs by MTT assay. It is filed as functional, cell-based. The conditions noted are these: PC-9, 48 h. (Tetrazolium assays rely on reduction of a dye to a coloured formazan, in cell work by metabolically active cells.)
The subject of the next data set is HCC827. Kind of data set: Antiproliferative activity against human HCC827 cells measured after 48 hrs by MTT assay. Format: functional, cell-based. The conditions noted are these: HCC827, 48 h.
Data set [1] addresses Phosphatidylinositol 4,5-bisphosphate 3-kinase catalytic subunit alpha isoform (Homo sapiens, UniProt P42336).
Description: Inhibition of PI3Kalpha (unknown origin) using PIP2 as substrate measured after 1 hr in presence of ATP by ADP-glo luminescence assay
Data set [2] has as its target Phosphatidylinositol 4,5-bisphosphate 3-kinase catalytic subunit beta isoform (Homo sapiens, UniProt P42338). Kind of data set: Inhibition of PI3Kbeta (unknown origin) using PIP2 as substrate measured after 1 hr in presence of ATP by ADP-glo luminescence assay.
In data set [3] the target is Phosphatidylinositol 4,5-bisphosphate 3-kinase catalytic subunit gamma isoform (Homo sapiens, UniProt P48736). Kind of data set: Inhibition of PI3K gamma (unknown origin) using PIP2 as substrate measured after 1 hr in presence of ATP by ADP-glo luminescence assay. (In general: ADP-Glo first removes unused ATP, then detects ADP through luciferase.)
Data set [4] has as its target T1, Phosphatidylinositol 4,5-bisphosphate 3-kinase catalytic subunit delta isoform (Homo sapiens, UniProt O00329).
T1 sequence (O00329 whole entry): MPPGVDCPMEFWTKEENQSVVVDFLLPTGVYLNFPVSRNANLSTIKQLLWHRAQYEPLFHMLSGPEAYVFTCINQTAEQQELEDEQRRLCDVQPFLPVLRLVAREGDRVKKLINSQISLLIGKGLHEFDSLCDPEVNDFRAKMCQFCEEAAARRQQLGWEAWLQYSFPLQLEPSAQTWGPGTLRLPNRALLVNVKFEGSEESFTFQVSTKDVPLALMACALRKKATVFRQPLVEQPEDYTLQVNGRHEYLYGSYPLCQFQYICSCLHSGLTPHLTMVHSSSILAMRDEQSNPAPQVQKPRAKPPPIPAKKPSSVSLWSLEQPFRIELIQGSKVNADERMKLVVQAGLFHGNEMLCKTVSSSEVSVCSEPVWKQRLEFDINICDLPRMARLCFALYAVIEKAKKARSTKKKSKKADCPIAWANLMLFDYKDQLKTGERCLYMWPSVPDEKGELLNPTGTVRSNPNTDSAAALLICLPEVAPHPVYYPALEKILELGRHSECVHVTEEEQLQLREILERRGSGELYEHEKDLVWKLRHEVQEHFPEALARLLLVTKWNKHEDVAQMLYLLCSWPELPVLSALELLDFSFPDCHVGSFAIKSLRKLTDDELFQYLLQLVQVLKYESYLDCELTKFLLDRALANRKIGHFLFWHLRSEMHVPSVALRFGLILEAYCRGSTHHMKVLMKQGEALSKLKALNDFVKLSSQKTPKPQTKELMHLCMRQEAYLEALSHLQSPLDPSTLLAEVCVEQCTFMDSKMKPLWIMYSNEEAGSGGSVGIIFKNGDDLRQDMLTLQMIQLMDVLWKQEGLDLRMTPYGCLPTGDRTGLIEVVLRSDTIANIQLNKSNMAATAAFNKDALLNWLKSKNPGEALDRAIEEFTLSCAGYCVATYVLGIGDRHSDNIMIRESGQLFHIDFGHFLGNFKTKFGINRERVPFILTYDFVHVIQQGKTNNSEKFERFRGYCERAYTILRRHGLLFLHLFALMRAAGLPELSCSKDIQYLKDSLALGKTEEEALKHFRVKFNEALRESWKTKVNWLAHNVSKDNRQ
Kind of data set: Inhibition of PI3K delta (unknown origin) using PIP2 as substrate measured after 1 hr in presence of ATP by ADP-glo luminescence assay.

Data set [5] has as its target Serine/threonine-protein kinase mTOR (Homo sapiens, UniProt P42345). Kind of data set: Inhibition of mTOR (unknown origin) using ULight-4E-BP1 as substrate measured after 45 mins in presence of ATP by Lance ultra assay.
Another data set deals with T2, CYP1A2 (Homo sapiens, UniProt P05177).
T2 sequence (P05177 whole entry): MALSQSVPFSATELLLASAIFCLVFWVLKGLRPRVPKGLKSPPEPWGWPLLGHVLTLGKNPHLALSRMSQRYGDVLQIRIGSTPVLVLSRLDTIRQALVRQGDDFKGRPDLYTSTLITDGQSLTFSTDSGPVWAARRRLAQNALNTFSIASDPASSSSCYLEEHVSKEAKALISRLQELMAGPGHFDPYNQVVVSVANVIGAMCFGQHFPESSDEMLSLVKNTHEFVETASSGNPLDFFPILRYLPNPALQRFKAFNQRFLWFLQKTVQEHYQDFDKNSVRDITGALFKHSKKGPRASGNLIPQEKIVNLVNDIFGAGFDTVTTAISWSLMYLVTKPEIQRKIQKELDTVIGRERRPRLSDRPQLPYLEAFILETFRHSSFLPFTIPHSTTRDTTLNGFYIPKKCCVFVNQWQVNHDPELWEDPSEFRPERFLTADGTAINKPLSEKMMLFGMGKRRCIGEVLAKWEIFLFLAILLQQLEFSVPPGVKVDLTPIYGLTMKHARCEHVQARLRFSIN
Kind of data set: Inhibition of CYP1A2 (unknown origin) at 10 uM relative to control. Format: ADME.

For the next data set, the target named is CYP2C9 (Homo sapiens, UniProt P11712). Kind of data set: Inhibition of CYP2C9 (unknown origin) at 10 uM relative to control. Format: ADME.
The target in a further data set is CYP2D6 (Homo sapiens, UniProt P10635). Kind of data set: Inhibition of CYP2D6 (unknown origin) at 10 uM relative to control. It is filed as ADME.
The target of the next data set is CYP3A4 (Homo sapiens, UniProt P08684). Kind of data set: Inhibition of CYP3A4 (unknown origin) at 10 uM relative to control. It is filed as ADME.
For a further data set, the target named is hERG (KCNH2) (Homo sapiens, UniProt Q12809). Kind of data set: Inhibition of human ERG at 20 uM relative to control. Format: toxicity.
A short description of data set [6]: Toxicity in 8 hrs fasted ICR mouse assessed as effect on blood glucose level at 20 mg/kg, iv measured upto 240 mins by glucometer analysis. The conditions noted are these: in vivo, 4 h. Format: organism-based.
A short description of data set [7]: Toxicity in nude male Balb/c mouse assessed as effect on body weight at 20 mg/kg, po administered daily for 2 weeks. It is filed as organism-based. The conditions noted are these: in vivo, 336 h.

Phosphatidylinositol 4,5-bisphosphate 3-kinase catalytic subunit alpha isoform, sequence (P42336 whole entry, canonical isoform): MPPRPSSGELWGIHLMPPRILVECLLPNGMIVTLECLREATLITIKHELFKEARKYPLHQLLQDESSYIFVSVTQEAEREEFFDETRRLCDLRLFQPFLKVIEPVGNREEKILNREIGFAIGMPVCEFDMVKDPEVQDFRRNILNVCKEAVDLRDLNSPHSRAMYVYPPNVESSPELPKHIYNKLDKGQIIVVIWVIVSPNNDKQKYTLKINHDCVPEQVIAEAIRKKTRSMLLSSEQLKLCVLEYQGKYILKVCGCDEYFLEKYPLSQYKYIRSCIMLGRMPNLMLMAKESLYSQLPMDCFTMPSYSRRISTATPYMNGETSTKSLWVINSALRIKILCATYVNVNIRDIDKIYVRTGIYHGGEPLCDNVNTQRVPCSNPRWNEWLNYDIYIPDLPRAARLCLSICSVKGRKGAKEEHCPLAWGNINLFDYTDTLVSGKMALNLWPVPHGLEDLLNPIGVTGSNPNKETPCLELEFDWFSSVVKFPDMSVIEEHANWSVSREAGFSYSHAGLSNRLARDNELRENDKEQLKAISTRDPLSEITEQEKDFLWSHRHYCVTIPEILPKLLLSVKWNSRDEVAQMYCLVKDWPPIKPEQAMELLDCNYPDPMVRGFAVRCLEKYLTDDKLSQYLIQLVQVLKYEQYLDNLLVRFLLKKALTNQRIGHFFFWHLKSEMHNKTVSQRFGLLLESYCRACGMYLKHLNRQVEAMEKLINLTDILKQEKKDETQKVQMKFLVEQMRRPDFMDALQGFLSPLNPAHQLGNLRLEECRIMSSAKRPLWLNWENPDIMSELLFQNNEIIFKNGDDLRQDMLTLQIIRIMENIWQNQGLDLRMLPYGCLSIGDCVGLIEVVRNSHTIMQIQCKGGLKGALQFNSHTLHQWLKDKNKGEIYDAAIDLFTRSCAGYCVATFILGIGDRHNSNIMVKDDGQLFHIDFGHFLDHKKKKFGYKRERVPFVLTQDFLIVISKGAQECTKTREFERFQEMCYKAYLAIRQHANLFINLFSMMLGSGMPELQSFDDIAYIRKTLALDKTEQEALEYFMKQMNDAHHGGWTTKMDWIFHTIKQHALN
Phosphatidylinositol 4,5-bisphosphate 3-kinase catalytic subunit beta isoform, sequence (P42338 whole entry, canonical isoform): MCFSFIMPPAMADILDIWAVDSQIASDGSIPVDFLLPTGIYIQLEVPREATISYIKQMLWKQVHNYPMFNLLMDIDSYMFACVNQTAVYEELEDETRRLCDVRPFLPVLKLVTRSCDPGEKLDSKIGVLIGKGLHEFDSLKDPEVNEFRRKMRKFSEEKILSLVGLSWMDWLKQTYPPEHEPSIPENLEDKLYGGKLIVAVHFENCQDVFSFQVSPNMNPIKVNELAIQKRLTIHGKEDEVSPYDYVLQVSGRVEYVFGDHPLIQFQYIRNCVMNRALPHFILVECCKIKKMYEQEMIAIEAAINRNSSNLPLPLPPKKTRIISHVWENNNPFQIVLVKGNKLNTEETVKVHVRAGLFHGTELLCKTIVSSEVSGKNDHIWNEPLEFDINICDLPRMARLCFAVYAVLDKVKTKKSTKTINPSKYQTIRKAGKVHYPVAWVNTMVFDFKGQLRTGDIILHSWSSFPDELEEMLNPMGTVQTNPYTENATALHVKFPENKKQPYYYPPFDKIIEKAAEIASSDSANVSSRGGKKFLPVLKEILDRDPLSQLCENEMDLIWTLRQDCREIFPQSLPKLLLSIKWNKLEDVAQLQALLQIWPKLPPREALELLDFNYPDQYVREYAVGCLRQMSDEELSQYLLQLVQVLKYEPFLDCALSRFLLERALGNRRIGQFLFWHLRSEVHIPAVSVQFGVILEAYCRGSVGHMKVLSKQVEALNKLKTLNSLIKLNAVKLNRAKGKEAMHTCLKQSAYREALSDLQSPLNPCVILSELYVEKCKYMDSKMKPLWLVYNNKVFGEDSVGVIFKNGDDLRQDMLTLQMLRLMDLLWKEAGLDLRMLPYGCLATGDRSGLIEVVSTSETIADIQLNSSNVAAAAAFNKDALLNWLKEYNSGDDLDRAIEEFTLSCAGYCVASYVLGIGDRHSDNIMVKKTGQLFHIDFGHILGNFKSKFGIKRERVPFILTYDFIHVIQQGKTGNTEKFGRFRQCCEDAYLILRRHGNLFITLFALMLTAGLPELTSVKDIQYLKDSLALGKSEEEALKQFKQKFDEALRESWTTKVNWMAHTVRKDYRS
Phosphatidylinositol 4,5-bisphosphate 3-kinase catalytic subunit gamma isoform, sequence (P48736 whole entry, canonical isoform): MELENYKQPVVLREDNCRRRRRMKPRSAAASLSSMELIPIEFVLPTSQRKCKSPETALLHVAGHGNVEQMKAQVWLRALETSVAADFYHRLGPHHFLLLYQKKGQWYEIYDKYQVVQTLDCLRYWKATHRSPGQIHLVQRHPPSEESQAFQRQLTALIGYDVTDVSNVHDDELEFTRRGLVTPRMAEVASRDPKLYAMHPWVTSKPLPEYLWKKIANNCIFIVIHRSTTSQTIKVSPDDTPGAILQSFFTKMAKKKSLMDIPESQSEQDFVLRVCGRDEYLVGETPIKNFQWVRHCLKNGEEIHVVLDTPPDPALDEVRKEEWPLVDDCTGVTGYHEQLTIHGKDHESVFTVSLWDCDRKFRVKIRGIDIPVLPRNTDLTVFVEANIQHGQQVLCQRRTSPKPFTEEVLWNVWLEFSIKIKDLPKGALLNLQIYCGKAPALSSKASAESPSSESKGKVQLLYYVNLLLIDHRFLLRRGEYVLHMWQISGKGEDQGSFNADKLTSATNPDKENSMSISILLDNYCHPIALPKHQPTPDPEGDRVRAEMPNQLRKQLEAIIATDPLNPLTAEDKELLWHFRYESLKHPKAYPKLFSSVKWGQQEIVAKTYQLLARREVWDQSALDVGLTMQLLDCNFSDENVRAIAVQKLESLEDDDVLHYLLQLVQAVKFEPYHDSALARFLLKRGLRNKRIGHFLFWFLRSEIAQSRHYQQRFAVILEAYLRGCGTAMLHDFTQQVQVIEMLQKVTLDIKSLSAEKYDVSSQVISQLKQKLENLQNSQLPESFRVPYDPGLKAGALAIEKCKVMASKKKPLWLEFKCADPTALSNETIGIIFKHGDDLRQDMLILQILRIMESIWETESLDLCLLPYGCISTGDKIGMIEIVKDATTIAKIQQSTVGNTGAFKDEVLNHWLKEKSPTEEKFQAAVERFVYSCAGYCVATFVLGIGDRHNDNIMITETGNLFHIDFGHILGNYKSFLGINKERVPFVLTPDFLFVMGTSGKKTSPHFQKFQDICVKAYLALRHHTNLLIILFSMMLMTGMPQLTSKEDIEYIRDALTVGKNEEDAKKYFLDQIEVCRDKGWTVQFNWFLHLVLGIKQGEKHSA
CYP2D6, sequence (P10635 whole entry): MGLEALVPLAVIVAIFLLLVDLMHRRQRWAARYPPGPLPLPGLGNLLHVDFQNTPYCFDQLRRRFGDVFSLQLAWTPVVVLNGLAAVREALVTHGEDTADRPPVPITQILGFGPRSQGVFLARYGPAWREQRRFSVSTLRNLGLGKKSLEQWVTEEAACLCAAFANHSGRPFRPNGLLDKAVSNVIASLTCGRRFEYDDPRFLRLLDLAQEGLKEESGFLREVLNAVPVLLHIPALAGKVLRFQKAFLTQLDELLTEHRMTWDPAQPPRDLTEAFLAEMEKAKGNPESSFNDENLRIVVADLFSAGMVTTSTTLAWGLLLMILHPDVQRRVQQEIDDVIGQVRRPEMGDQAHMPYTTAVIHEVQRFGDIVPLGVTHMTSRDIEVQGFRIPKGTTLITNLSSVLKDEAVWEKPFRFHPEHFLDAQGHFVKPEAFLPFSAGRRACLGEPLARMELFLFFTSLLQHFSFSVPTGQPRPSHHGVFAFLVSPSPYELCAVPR
hERG (KCNH2), sequence (Q12809 whole entry): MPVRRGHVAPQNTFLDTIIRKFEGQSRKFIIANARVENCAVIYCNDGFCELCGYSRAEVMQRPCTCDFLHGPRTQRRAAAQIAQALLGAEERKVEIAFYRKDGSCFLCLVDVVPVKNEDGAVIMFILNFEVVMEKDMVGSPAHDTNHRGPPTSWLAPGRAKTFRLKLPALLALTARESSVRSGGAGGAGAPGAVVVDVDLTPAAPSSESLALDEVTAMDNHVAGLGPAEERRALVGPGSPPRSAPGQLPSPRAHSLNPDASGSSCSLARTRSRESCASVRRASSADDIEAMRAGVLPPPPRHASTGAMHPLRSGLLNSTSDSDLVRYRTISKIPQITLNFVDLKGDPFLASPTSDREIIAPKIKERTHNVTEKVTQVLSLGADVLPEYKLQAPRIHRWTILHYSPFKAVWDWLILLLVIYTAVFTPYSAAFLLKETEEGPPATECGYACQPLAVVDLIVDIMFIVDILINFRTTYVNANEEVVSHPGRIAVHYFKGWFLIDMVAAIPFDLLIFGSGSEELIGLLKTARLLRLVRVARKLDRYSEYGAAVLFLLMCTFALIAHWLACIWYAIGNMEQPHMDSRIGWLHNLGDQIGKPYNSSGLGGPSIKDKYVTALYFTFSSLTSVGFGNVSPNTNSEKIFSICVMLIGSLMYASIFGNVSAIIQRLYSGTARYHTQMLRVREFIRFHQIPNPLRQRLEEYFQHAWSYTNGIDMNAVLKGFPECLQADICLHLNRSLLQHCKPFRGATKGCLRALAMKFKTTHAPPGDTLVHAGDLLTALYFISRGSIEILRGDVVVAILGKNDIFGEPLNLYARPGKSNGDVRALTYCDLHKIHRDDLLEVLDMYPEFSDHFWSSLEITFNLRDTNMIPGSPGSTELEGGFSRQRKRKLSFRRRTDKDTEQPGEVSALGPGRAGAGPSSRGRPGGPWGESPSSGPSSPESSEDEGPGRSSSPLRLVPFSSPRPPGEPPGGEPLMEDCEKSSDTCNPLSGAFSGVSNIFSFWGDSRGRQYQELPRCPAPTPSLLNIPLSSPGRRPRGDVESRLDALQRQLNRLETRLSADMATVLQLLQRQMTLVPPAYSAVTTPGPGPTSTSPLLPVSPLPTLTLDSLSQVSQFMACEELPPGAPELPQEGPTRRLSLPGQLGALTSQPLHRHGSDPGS

For `O=C(c1ccc(NC(=S)Nc2ccc(-c3nc(N4CCOCC4)nc(N4CCOCC4)n3)cc2)cc1)N1CCCC(CO)C1` (stereo unspecified), the IC50 came to 4320 nM with PC-9, 1980 nM in the data set with HCC827 and 36.6 nM in data set [1].

For `O=C(Nc1ccc(C(=O)N2CCC[C@H]2CO)cc1)Nc1ccc(-c2nc(N3CCOCC3)nc(N3CCOCC3)n2)cc1`, the IC50 in data set [2] turned out to be 1.1 nM; in data set [3], 4.8 nM; in [4], 9.3 nM; in [5], 2.9 nM. In addition, the inhibition at 10 µM against CYP1A2 is 10%; at CYP2C9, 15%; against CYP2D6 it was 25%; at CYP3A4, 20%. The same compound showed an inhibition at 20 µM on hERG (KCNH2) of 15%.

Turning to `CN1CCN(C(=O)c2ccc(NC(=S)Nc3ccc(-c4nc(N5CCOCC5)nc(N5CCOCC5)n4)cc3)cc2)CC1`, the IC50 in data set [2] worked out at 169 nM; in data set [3] it was 657 nM; in data set [4], 338 nM; in data set [5] it was 127 nM.

With `O=C(c1ccc(NC(=S)Nc2ccc(-c3nc(N4CCOCC4)nc(N4CCOCC4)n3)cc2)cc1)N1CCN(C(=O)C2CCCO2)CC1` (stereo unspecified), the concentration for half-maximal inhibition (IC50) is 32700 nM with PC-9, 19800 nM with HCC827 and 20.3 nM in data set [1].

For the compound `O=C(c1ccc(NC(=S)Nc2ccc(-c3nc(N4CCOCC4)nc(N4CCOCC4)n3)cc2)cc1)N1CCC[C@H]1CO`, the IC50 is 35.4 nM in [2], 123 nM in data set [3], 106 nM in data set [4] and 24.3 nM in [5].

`O=C(Nc1ccc(C(=O)N2CCC[C@@H]2CO)cc1)Nc1ccc(-c2nc(N3CCOCC3)nc(N3CCOCC3)n2)cc1`: the IC50 in data set [2] was determined as 42.5 nM; in data set [3], 32.3 nM; in data set [4], 34.1 nM; in data set [5] it was 4.9 nM.

`O=C(c1ccc(NC(=S)Nc2ccc(-c3nc(N4CCOCC4)nc(N4CCOCC4)n3)cc2)cc1)N1CCCCC1CO` (stereo unspecified) returned an IC50 in data set [1] of 70.4 nM.

Take `CN(C)C1CCN(C(=O)c2ccc(NC(=O)Nc3ccc(-c4nc(N5CCOCC5)nc(N5CCOCC5)n4)cc3)cc2)CC1` [GEDATOLISIB]: the Activity entry is recorded as “Toxic” in [6] and “Non-toxic” in data set [7].

For the compound `COc1ncc(-c2ccc3nccc(-c4ccnnc4)c3c2)cc1NS(=O)(=O)c1ccc(F)cc1F` [OMIPALISIB], in data set [3], the IC50 worked out at 0.86 nM.

Usually IC50 stands for the concentration needed to halve the response being measured. A word on the inhibition: it is how much of the control response was suppressed. A lower inhibition goes with a response near the control.
